≈ marks a conversion by molar mass, not a printed value. Like-named read-outs stand apart in the source and are kept apart here.
Assays:
MRSA = assay: Disk diffusion assay, zone of inhibition, MRSA; type: cell-based, Staphylococcus aureus; conditions: disk diffusion zone of inhibition
M. smegmatis (mc2155) = assay: Disk diffusion assay, zone of inhibition, M. smegmatis; type: cell-based; conditions: disk diffusion zone of inhibition
[1] = test system: S. aureus ATCC 29213 (MSSA); assay: Broth dilution MIC, S. aureus ATCC 29213; type: cell-based; conditions: Staphylococcus aureus
[2] = test system: S. aureus ATCC 33591 (MRSA); assay: Broth dilution MIC, S. aureus ATCC 33591; type: cell-based; conditions: for MIC: Staphylococcus aureus
S. aureus BAA-39 (MDR) = assay: Broth dilution MIC, S. aureus BAA-39; type: cell-based; conditions: for MIC: Staphylococcus aureus, BAA39
[3] = test system: S. pneumoniae ATCC 6301 (PSSP); assay: Broth dilution MIC, S. pneumoniae ATCC 6301; type: cell-based; conditions: Streptococcus pneumoniae
[4] = test system: S. pneumoniae ATCC 700674 (PRSP); assay: Broth dilution MIC, S. pneumoniae ATCC 700674; type: cell-based; conditions: Streptococcus pneumoniae
[5] = test system: E. faecalis ATCC 29212 (VRE); assay: Broth dilution MIC, E. faecalis ATCC 29212; type: cell-based
[6] = test system: E. faecium ATCC 700221 (VRE); assay: Broth dilution MIC, E. faecium ATCC 700221; type: cell-based
E. faecium CT-26 = assay: Broth dilution MIC, E. faecium CT-26; type: cell-based; conditions: Enterococcus faecium
E. coli ECM 1694 = assay: Broth dilution MIC, E. coli ECM 1694; type: cell-based; conditions: Escherichia coli
E. coli ATCC 25922 = assay: Broth dilution MIC, E. coli ATCC 25922; type: cell-based; conditions: Escherichia coli
K. pneumoniae ATCC 13883 = assay: Broth dilution MIC, K. pneumoniae ATCC 13883; type: cell-based; conditions: Klebsiella pneumoniae
K. pneumoniae ATCC 51503 = assay: Broth dilution MIC, K. pneumoniae ATCC 51503; type: cell-based; conditions: Klebsiella pneumoniae
P. aeruginosa ATCC 9027 = assay: Broth dilution MIC, P. aeruginosa ATCC 9027; type: cell-based; conditions: Pseudomonas aeruginosa
C. albicans ATCC 14053 = assay: Broth dilution MIC, C. albicans ATCC 14053; type: cell-based; conditions: Candida albicans, ATCC14053; Table 1; range 64 down to 0.12 μg/ml
Procedure: In vitro Anti-bacterial & Anti-fungal Activity Assay: All test compounds were prepared as 6.4 mg/ml stock solutions in DMSO and further diluted according to the NCCLS M7-A6 (Page 5) document with sterile water or appropriate diluent. A working stock of 256 μg/ml was used to do 1:2 serial dilutions in 96-well plates. […] The inoculums were prepared by making a direct sterile water suspension of isolated colonies from 18 to 24 hr agar plates for all organisms (Mueller Hinton, Blood Agar or SDA plates). Each bacterial suspension was adjusted to read between 0.09 and 0.11 absorbance at 620 nm. […] These were further diluted 1/100 in appropriate broth for inoculating the 96-well plates. The C. albicans suspension was adjusted to read between 70 and 75% Transmittance at 530 nm and then diluted 1/500 in RPMI+MOPS broth. All aerobic bacterial and fungal plates were incubated for 18 hrs. at 35° C. […] Plates were read using a Beckman Automated Plate Reader at 650 nm. Readings were confirmed by visual examination of plates. (See Table 1, Table 2, Table 3, and Table 4). […] It is important to note that positive results against C. albicans are often indicative of broad spectrum antifungal activity, while negative results are not necessarily conclusory of a lack of activity against other fungus.

[7] = Table 1, range 64 down to 0.12 μg/ml, read-out: MIC S. aureus ATCC 29213
[8] = Table 2, broth dilution MIC in ug/ml, read-out: MIC S aureus ATCC 29213 MSSA
[9] = Table 1, range 64 down to 0.12 μg/ml, read-out: MIC S. aureus ATCC 33591
[10] = Table 2, broth dilution MIC in ug/ml, read-out: MIC S aureus ATCC 33591 MRSA
[11] = Table 1, range 64 down to 0.12 μg/ml, read-out: MIC S. aureus BAA-39
[12] = Table 2, broth dilution MIC in ug/ml, read-out: MIC S aureus BAA-39 MDR
[13] = ATCC6301, Table 1, range 64 down to 0.12 μg/ml, read-out: MIC S. pneumoniae ATCC 6301
[14] = ATCC6301, Table 2, broth dilution MIC in ug/ml, read-out: MIC S pneumonia ATCC 6301 PSSP
[15] = Table 1, range 64 down to 0.12 μg/ml, read-out: MIC S. pneumoniae ATCC 700674
[16] = Table 2, broth dilution MIC in ug/ml, read-out: MIC S pneumonia ATCC 700674 PRSP
[17] = Enterococcus faecalis, Table 1, range 64 down to 0.12 μg/ml, read-out: MIC E. faecalis ATCC 29212
[18] = Table 2, broth dilution MIC in ug/ml, read-out: MIC E faecalis ATCC 29212 VRE
[19] = Enterococcus faecium, Table 1, range 64 down to 0.12 μg/ml, read-out: MIC E. faecium ATCC 700221
[20] = Table 2, broth dilution MIC in ug/ml, read-out: MIC E faecium ATCC 700221 VRE
[21] = CT26, Table 1, range 64 down to 0.12 μg/ml, read-out: MIC E. faecium CT-26
[22] = CT26, Table 2, broth dilution MIC in ug/ml, read-out: MIC E faecium CT-25
[23] = ECM1694, Table 1, range 64 down to 0.12 μg/ml, read-out: MIC E. coli ECM 1694
[24] = ECM1694, Table 2, broth dilution MIC in ug/ml, read-out: MIC E. coli ECM 1693
[25] = ATCC 25921 / ATCC 25922, Table 2, broth dilution MIC in ug/ml, read-out: MIC E. coli ATCC 25921
[26] = ATCC25922, Table 1, range 64 down to 0.12 μg/ml, read-out: MIC E. coli ATCC 25922
[27] = ATCC13883, Table 1, range 64 down to 0.12 μg/ml, read-out: MIC K. pneumoniae ATCC 13883
[28] = ATCC13883, Table 2, broth dilution MIC in ug/ml, read-out: MIC K pneumonia ATCC 13883
[29] = ATCC51503, Table 1, range 64 down to 0.12 μg/ml, read-out: MIC K. pneumoniae ATCC 51503
[30] = ATCC51503, Table 2, broth dilution MIC in ug/ml, read-out: MIC K pneumonia ATCC 51503
[31] = ATCC 9026 / ATCC 9027, Table 2, broth dilution MIC in ug/ml, read-out: MIC P aeruginosa ATCC 9026
[32] = ATCC9027, Table 1, range 64 down to 0.12 μg/ml, read-out: MIC P. aeruginosa ATCC 9027

SMILES: Nc1ccc(Nc2ccc(-c3cc4ccc(C5=NCCN5)cc4[nH]3)cc2)cc1 [SKI-8]
- Zone Size MRSA (MRSA): 12 mm
- Zone Size M. smegmatis (M. smegmatis (mc2155)): 24 mm
- MIC [1, 7]: 16 µg/mL (≈ 43.5 µM)
- MIC [1, 8]: 16 µg/mL (≈ 43.5 µM)
- MIC [2, 9]: 8 µg/mL (≈ 21.8 µM)
- MIC [2, 10]: 8 µg/mL (≈ 21.8 µM)
- MIC (S. aureus BAA-39 (MDR); [11]): 16 µg/mL (≈ 43.5 µM)
- MIC (S. aureus BAA-39 (MDR); [12]): 16 µg/mL (≈ 43.5 µM)
- MIC [3, 13]: 8 µg/mL (≈ 21.8 µM)
- MIC [3, 14]: 8 µg/mL (≈ 21.8 µM)
- MIC [4, 15]: 32 µg/mL (≈ 87.1 µM)
- MIC [4, 16]: 32 µg/mL (≈ 87.1 µM)
- MIC [5, 17]: 8 µg/mL (≈ 21.8 µM)
- MIC [5, 18]: 8 µg/mL (≈ 21.8 µM)
- MIC [6, 19]: 4 µg/mL (≈ 10.9 µM)
- MIC [6, 20]: 4 µg/mL (≈ 10.9 µM)
- MIC (E. faecium CT-26; [21]): 4 µg/mL (≈ 10.9 µM)
- MIC (E. faecium CT-26; [22]): 4 µg/mL (≈ 10.9 µM)
- MIC (E. coli ECM 1694; [23]): 2 µg/mL (≈ 5.44 µM)
- MIC (E. coli ECM 1694; [24]): 2 µg/mL (≈ 5.44 µM)
- MIC (E. coli ATCC 25922; [25]): 32 µg/mL (≈ 87.1 µM)
- MIC (E. coli ATCC 25922; [26]): 32 µg/mL (≈ 87.1 µM)
- MIC (K. pneumoniae ATCC 13883; [27]): > 64 µg/mL
- MIC (K. pneumoniae ATCC 13883; [28]): 64 µg/mL (≈ 174 µM)
- MIC (K. pneumoniae ATCC 51503; [29]): > 64 µg/mL
- MIC (K. pneumoniae ATCC 51503; [30]): 64 µg/mL (≈ 174 µM)
- MIC (P. aeruginosa ATCC 9027; [31]): 64 µg/mL (≈ 174 µM)
- MIC (P. aeruginosa ATCC 9027; [32]): > 64 µg/mL
- MIC (C. albicans ATCC 14053): 64 µg/mL (≈ 174 µM)

SMILES: c1cnc(-c2ccc(Nc3ccc(-c4cc5ccc(C6=NCCN6)cc5[nH]4)cc3)cc2)cn1 [SKI-10]
- Zone Size MRSA (MRSA): 11 mm
- Zone Size M. smegmatis (M. smegmatis (mc2155)): 14.3 mm
- MIC ([1]; Table 3, starting at 4 μg/ml, read-out: MIC S. aureus ATCC 29213): 0.5 µg/mL (≈ 1.16 µM)
- MIC [1, 7]: 0.5 µg/mL (≈ 1.16 µM)
- MIC [1, 8]: 0.5 µg/mL (≈ 1.16 µM)
- MIC [2, 9]: 0.5 µg/mL (≈ 1.16 µM)
- MIC [2, 10]: 0.5 µg/mL (≈ 1.16 µM)
- MIC S. aureus ATCC 33591 ([2]; Table 3, starting at 4 μg/ml): 0.5 µg/mL (≈ 1.16 µM)
- MIC (S. aureus BAA-39 (MDR); [11]): 0.5 µg/mL (≈ 1.16 µM)
- MIC (S. aureus BAA-39 (MDR); [12]): 0.5 µg/mL (≈ 1.16 µM)
- MIC S. aureus BAA-39 (S. aureus BAA-39 (MDR); Table 3, starting at 4 μg/ml): 0.5 µg/mL (≈ 1.16 µM)
- MIC [3, 13]: ≤ 0.12 µg/mL
- MIC [3, 14]: 0.12 µg/mL (≈ 0.279 µM)
- MIC ([3]; ATCC6301, Table 3, starting at 4 μg/ml, read-out: MIC S. pneumoniae ATCC 6301): 0.12 µg/mL (≈ 0.279 µM)
- MIC [4, 15]: ≤ 0.12 µg/mL
- MIC [4, 16]: 0.12 µg/mL (≈ 0.279 µM)
- MIC ([4]; Table 3, starting at 4 μg/ml, read-out: MIC S. pneumoniae ATCC 700674): 0.12 µg/mL (≈ 0.279 µM)
- MIC [5, 17]: 0.25 µg/mL (≈ 0.581 µM)
- MIC [5, 18]: 0.25 µg/mL (≈ 0.581 µM)
- MIC E. faecalis ATCC 29212 ([5]; Table 3, starting at 4 μg/ml): 0.25 µg/mL (≈ 0.581 µM)
- MIC [6, 19]: ≤ 0.12 µg/mL
- MIC ([6]; Enterococcus faecium, Table 3, starting at 4 μg/ml, read-out: MIC E. faecium ATCC 700221): 0.12 µg/mL (≈ 0.279 µM)
- MIC [6, 20]: 0.12 µg/mL (≈ 0.279 µM)
- MIC (E. faecium CT-26; [21]): ≤ 0.12 µg/mL
- MIC (E. faecium CT-26; [22]): 0.12 µg/mL (≈ 0.279 µM)
- MIC (E. faecium CT-26; CT26, Table 3, starting at 4 μg/ml, read-out: MIC E. faecium CT-26): 0.12 µg/mL (≈ 0.279 µM)
- MIC (E. coli ECM 1694; [23]): 0.25 µg/mL (≈ 0.581 µM)
- MIC (E. coli ECM 1694; [24]): 0.25 µg/mL (≈ 0.581 µM)
- MIC (E. coli ECM 1694; ECM1694, Table 3, starting at 4 μg/ml, read-out: MIC E. coli ECM 1694): 0.25 µg/mL (≈ 0.581 µM)
- MIC (E. coli ATCC 25922; [25]): 2 µg/mL (≈ 4.65 µM)
- MIC (E. coli ATCC 25922; [26]): 2 µg/mL (≈ 4.65 µM)
- MIC (K. pneumoniae ATCC 13883; [27]): 4 µg/mL (≈ 9.29 µM)
- MIC (K. pneumoniae ATCC 13883; [28]): 4 µg/mL (≈ 9.29 µM)
- MIC (K. pneumoniae ATCC 51503; [29]): 8 µg/mL (≈ 18.6 µM)
- MIC (K. pneumoniae ATCC 51503; [30]): 8 µg/mL (≈ 18.6 µM)
- MIC (P. aeruginosa ATCC 9027; [31]): 16 µg/mL (≈ 37.2 µM)
- MIC (P. aeruginosa ATCC 9027; [32]): 16 µg/mL (≈ 37.2 µM)
- MIC (C. albicans ATCC 14053): 8 µg/mL (≈ 18.6 µM)

Reference: patent US20150291565A1, “INDOLE COMPOUNDS AND THEIR USE AS ANTIMICROBIALS” (Memorial Sloan-Kettering Cancer Center, priority 2012, published 2015)
